Measured values taken from US20260132160A1, “IRON REPLACEMENT TREATMENTS” (The General Hospital Corporation, priority 2022, published 2026).
Entries after “also recorded” stand apart in the source; their conditions may differ.

Tests used:
[1] = Labile iron in serum after i.v. injection (dihydrorhodamine 123 oxidation); assay type: in vivo, mouse
Procedure: These are the same serum samples as in FIG. 9. The assay was performed as described in Blood 2003, 102 (7), 2670-2677.
To quantify labile iron released by Fe-BBG after intravenous injection, male C57BL/6 mice received either 0.01 mmol Fe-BBG/kg (0.56 μg Fe per g body weight), 0.1 mmol Fe-BBG/kg (5.6 μg Fe per g body weight), or placebo (saline vehicle) via tail vein injection and were euthanized either 5 min, 60 min or 100 min post-injection. Blood serum was harvested and labile Fe in each sample quantified by spectrophotometrically monitoring the rate of dihydrorhodamine 123 oxidation under redox forcing conditions, as reported in Blood 2003, 102 (7), 2670-2677 and described below:
Quadruplicates of 20 μL serum were transferred to clear-bottom 96-well plates. To 2 of the wells was added 180 μL iron-free HEPES buffered saline (HBS) (preincubated at 37° C.) containing 40 μM ascorbate and 50 µM dihydrorhodamine 123 (DHR). […] The kinetics of fluorescence increase were followed at 37° C. in a Molecular Devices FlexStation 3 microplate reader with 485/538 nm excitation/emission filter pair, for 40 minutes, with readings every 2 minutes. The slopes (R) of DHR fluorescence intensity with time were calculated from measurements taken between 16 and 40 minutes and are given as FU·minute^−1 (fluorescence units per minute). […]

normal male C57BL/6 mice = experiment: Serum nonheme iron parameters after i.v. injection (ferrozine assay); assay type: in vivo, mouse
Procedure: The in vivo efficacy of Fe-BBG as a direct-to-transferrin Fe replacement drug was preliminary evaluated in normal male C57BL/6mice. Mice received either 0.01 mmol Fe-BBG/kg (0.56 μg Fe per g body weight), 0.1 mmol Fe-BBG/kg (5.6 μg Fe per g body weight), or placebo (saline vehicle) via tail vein injection and were euthanized either 5 min, 60 min or 100 min post-injection. Serum nonheme iron parameters were then quantified using the spectrophotometric ferrozine assay.
FIG. 9 compares serum iron, total iron binding capacibity (TIBC), and unbound iron binding capacity (UIBC), recorded in mice treated with placebo and in serum harvested either 5 min, 60 min, or 100 min after Fe-BBG injection. The percentage transferrin saturation (% TSAT) was calculated at the 60 min and 100 min time points, at which point Fe-BBG and the BBG ligand remaining after trans-chelation with apo-transferrin had diminished to levels that will not interfere with the spectrophotometric assay.

[2] = Ascorbate reduction challenge (UV-vis); assay type: physicochemical; conditions: 0.1 mM Fe-BBG, 0.1 mM sodium ascorbate, pH 7.4
Tmprss6 knockout mice = experiment: Therapeutic efficacy in mouse model of iron refractory iron deficiency anemia; assay type: in vivo
Procedure: Tmprss6 knockout mice received 29 intraperitoneal injections each containing 25 μg Fe as Fe-BBG (1.3±0.18 μg Fe per gram body weight, N=5 mice, 2 male, 3 female) or containing saline (placebo, N=5 mice, 2 male, 3 female) over 15 days. The cumulative dose of Fe was 725 μg Fe (37±0.53 μg Fe per gram body weight). The mice were euthanized 120 min after the final injection. Blood was harvested for measurement of complete blood counts, and nonheme Fe parameters. Bone marrow and liver tissue were analyzed by qPCR for expression of genes related to erythropoietic activity, Fe exposure, oxidative stress, and inflammation, the data are tabulated in FIG. 15. Clinical chemistry was also recorded, see Example 16 below. FIG. 15 data are shown as mean±standard deviation. Statistical differences between groups were determined by two-tailed Student's t-test for normally distributed values or Mann-Whitney (/test for non-normally distributed values. Significant differences are indicated by *P<0.05, **P<0.01, ****P<0.0001.

apo-transferrin = apo-transferrin (Homo sapiens, UniProt P02787); experiment: Fe delivery to apo-transferrin (fluorescence quenching, urea gel electrophoresis); assay type: biochemical
apo-transferrin, sequence (P02787 20-698): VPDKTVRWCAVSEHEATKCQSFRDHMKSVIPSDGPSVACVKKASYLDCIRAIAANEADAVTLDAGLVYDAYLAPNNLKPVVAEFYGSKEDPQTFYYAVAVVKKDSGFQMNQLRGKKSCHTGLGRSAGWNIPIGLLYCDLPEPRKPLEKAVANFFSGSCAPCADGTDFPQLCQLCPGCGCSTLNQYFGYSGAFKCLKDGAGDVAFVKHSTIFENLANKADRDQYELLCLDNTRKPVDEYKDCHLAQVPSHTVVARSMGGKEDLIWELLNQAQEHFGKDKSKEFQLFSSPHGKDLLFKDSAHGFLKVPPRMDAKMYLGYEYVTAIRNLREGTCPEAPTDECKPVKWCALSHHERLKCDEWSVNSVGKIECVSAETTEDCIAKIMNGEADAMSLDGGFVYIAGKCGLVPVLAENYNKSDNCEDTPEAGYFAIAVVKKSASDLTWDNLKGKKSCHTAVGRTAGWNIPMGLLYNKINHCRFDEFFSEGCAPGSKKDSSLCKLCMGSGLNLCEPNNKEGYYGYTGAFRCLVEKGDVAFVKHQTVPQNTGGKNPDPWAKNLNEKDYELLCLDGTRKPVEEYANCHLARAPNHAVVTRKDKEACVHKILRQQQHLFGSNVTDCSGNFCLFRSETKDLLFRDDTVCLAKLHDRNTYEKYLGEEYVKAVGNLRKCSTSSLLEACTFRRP
Procedure: Incubation with FPC was positive control, the stable compound Fe-PyC3A was negative control (Conditions: 50 mM HEPES buffer supplemented with 25 mM bicarbonate, pH 7.4, 37° C.).
Transfer of Fe from Fe-BBG to apo-transferrin can be monitored through quenching of the apo-transferrin intrinsic fluorescence.
Transfer of Fe from Fe-BBG to apo-transferrin can also be monitored using urea gel electrophoresis.

[3] = Pharmacokinetics by dynamic magnetic resonance imaging; assay type: in vivo; conditions: mouse
Description: Fe-BBG is paramagnetic, which enables us to monitor Fe-BBG blood clearance and excretion through dynamic magnetic resonance imaging.

[4] = 0.56 or 5.6 μg Fe per g i.v., 5, 60, 100 min, vs placebo
[5] = 29 i.p. injections of 25 μg Fe over 15 days, vs placebo
[6] = 120 min after final injection, vs placebo

In the case of `O.O.O=C([O-])CC[C@H]1C(=O)[O][Fe]2[O]c3ccccc3CN1Cc1ccccc1[O]2` [Fe-BBG], the “labile iron release in vivo” value ([1]; 0.56 or 5.6 μg Fe per g, 5, 60, 100 min) is reported as “does not contribute detectable quantities of labile Fe; also recorded: does not release labile iron in vivo”, the “labile Fe concentration in serum” value ([1]; 5 min after injection of 5.6 μg Fe/g) is reported as less than 0.2 µM and the serum iron (normal male C57BL/6 mice; [4]) is reported as “rapidly raises”. For the same compound, the “total iron binding capacity (TIBC)” value (normal male C57BL/6 mice; [4]) was “rapidly raises; also recorded: does not decrease”, the “unbound iron binding capacity (UIBC)” value (normal male C57BL/6 mice; 0.56 or 5.6 μg Fe per g i.v., vs placebo) was “does not reduce UIBC significantly” and the “percentage transferrin saturation (% TSAT)” value (normal male C57BL/6 mice; 60 and 100 min, vs placebo) was “elevates % TSAT significantly”. The “total serum nonheme Fe relative to placebo treated mice” value (normal male C57BL/6 mice; 5 min after 5.6 μg Fe/g) was 25 fold, the “462 nm absorption peak upon challenge with ascorbate” value [2] was “remains unchanged” and the hematocrit (Tmprss6 knockout mice; [5]) was “increased significantly”. The hemoglobin (Tmprss6 knockout mice; [5]) was “significant elevation”, the mean corpuscle volume (Tmprss6 knockout mice; [5]) was “significantly increased” and the red cell width (Tmprss6 knockout mice; [5]) was “significantly increased”. For the same compound, the “mean % TSAT increase” value (Tmprss6 knockout mice; [6]) was roughly 7 fold, the “serum Fe” value (Tmprss6 knockout mice; [6]) was “elevated” and the “total iron binding capacity (TIBC)” value (Tmprss6 knockout mice; [6]) was “unchanged relative to placebo”. The “unbound iron binding capacity (UIBC)” value (Tmprss6 knockout mice; [6]) was “concomitant decrease”, the “clearance of Fe-BBG from serum” value (Tmprss6 knockout mice; 120 min after the final injection) was “cleared entirely” and the “bone marrow erythroferrone (Erfe) expression” value (Tmprss6 knockout mice; qPCR) was “significantly downregulated”. For the same compound, the “glycophorin A (GypA) expression” value (Tmprss6 knockout mice; qPCR, bone marrow) was “downregulated”, the “transferrin receptor type 1 (Tfrc) expression” value (Tmprss6 knockout mice; qPCR, bone marrow) was “downregulated” and the other hematology parameters (Tmprss6 knockout mice; vs placebo) was “No noteworthy differences”. For the same compound, the “Fe^3+ transfer to apo-transferrin” value (apo-transferrin; 50 mM HEPES, 25 mM bicarbonate, pH 7.4, 37° C.) was “stoichiometric transfer”, the “Fe^3+ transferred to apo-transferrin” value (apo-transferrin; urea gel, 10 μM apo-transferrin, 0-10 equiv Fe-BBG) was 2 molar equivalents and the “blood elimination half life (vena cava MR signal)” value ([3]; 0.14 mmol/kg injection, monoexponential fit) was 5.5 ± 2.8 min. For the same compound, the “hepatobiliary excretion (liver, gallbladder, bowel enhancement)” value ([3]; MRI) was “partial hepatobiliary excretion” and the “renal excretion (kidney enhancement)” value ([3]; MRI) was “rapid elimination through the kidneys; also recorded: rapid urinary excretion”.
